Results reported in paper PMC12486805, “Preclinical evaluation of tridecaptin M: in vitro and in vivo efficacy against colistin-resistant Gram-negative bacterial pathogens and pharmacokinetics” (Antimicrobial Agents and Chemotherapy, 2025).
In brackets after ≈: the same amount, converted by molar mass. Like-named read-outs stand apart in the source and are kept apart here. Where a SMILES comes first, the peptide text is derived from it. [ ]: non-standard residue; d: D form. The star is where a group is joined. d(aIle) = CC[C@H](C)[C@@H](N)C(=O)O; X1 = CC[C@H](C)CCCCC(=O)*; dDab = NCC[C@@H](N)C(=O)O; Dab = NCC[C@H](N)C(=O)O

Columns and labels:
in vitro [1] = conditions: rat, microsomes
Protocol: (§3) For without cofactors, 20 µL of PBS was added instead of pre-incubated cofactors. […] At each specified time, a 100 µL sample was taken, processed through a sample extraction procedure, and submitted for LC-MS/MS analysis ([35]). Half-life (t1/2) of test/control items was determined using the following equation
(§4) where, elimination rate constant (k) = −(slope of linear regression curve).

CYP3A4 = CYP3A4 (Homo sapiens, UniProt P08684); assay: CYP inhibition assay, recombinant isoform, fluorescence; assay type: biochemical
Protocol: (§1) The CYP inhibition assay was performed for test/control inhibitor items in duplicates using a 96-well fluorescence plate. An example of the preparation of CYP inhibition is given below in Table 8.
(§2) The plate with CYP master premix with test/control was incubated to allow the test/control samples to interact with CYP enzyme for 10 ± 1 min at 25°C under shaking conditions (400 rpm) using Thermomixer. The assay was initiated by adding 10 µL of a substrate and NADP^+ mixture to all wells, including a vehicle control and an assay blank. […] After incubation, the reaction was quenched by adding 50 µL of stop reagent (0.5 M Tris base) to each well.

CYP2C19 = CYP2C19 (Homo sapiens, UniProt P33261); assay: as above; assay type: biochemical
Protocol: as §1, §2

CYP2D6 = CYP2D6 (Homo sapiens, UniProt P10635); assay: as above; assay type: biochemical
Protocol: as §1, §2

CYP2C9 = CYP2C9 (Homo sapiens, UniProt P11712); assay: as above; assay type: biochemical
Protocol: as §1
The plate with CYP master premix with test/control was incubated to allow the test/control samples to interact with CYP enzyme for 10 ± 1 min at 25°C under shaking conditions (400 rpm) using Thermomixer. The assay was initiated by adding 10 µL of a substrate and NADP^+ mixture to all wells, including a vehicle control and an assay blank. The plate was then incubated at 25°C for 25 min with shaking at 400 rpm using a thermomixer. After incubation, the reaction was quenched by adding 50 µL of stop reagent (0.5 M Tris base) to each well. Fluorescence was measured using a microplate reader at excitation/emission wavelengths of 415/460 nm, respectively ([37]).

[2] = rat liver microsomes
Protocol: as §3, §4

in vitro [3] = conditions: rat, plasma, % Binding to Plasma Protein
Protocol: Plasma protein binding was assessed using the rapid equilibrium dialysis (RED) method, utilizing RED insert devices with a dialysis membrane featuring an 8,000 Dalton molecular weight cutoff for proteins. The test/control items in human, rat, and mouse plasma were prepared at a test concentration of 10 µM using 10 mM DMSO stocks, and the samples were added to the plasma chamber of the RED insert. The device was sealed with tape and incubated in a thermomixer at 37°C with shaking at 300 rpm for 4 h. Following incubation, a 50 µL aliquot of plasma and buffer was collected from each insert and diluted with an equal volume of the opposite matrix to mitigate matrix effects. The samples were quantified using LC-MS/MS analysis and were tested in duplicates.

E. coli = assay type: cell-based, Escherichia coli
Protocol: The MIC for all isolates was determined using the broth microdilution method. This involved preparing CA-MHB medium and serially diluting antibiotic solutions by a factor of two. The test organism was adjusted to a concentration of ≈5 × 10^5 CFU/mL. In a sterile 96-well microtiter plate, 100 µL of CA-MHB, along with 100 µL of each antibiotic, was added, and serial dilutions were made. A 100 µL suspension of the organism was added to each well and mixed, resulting in a total reaction volume of 200 µL per well. The plate was then incubated at 37°C for 16–18 h. The MIC was identified as the lowest concentration of antibiotic that prevented any visible growth of the organism ([16]).

[4] = system: K. pneumoniae ATCC 700603; conditions: ATCC 700603, 48 h
Protocol: LB, TSB, TSB + 1% Glucose, M63, and the M63 media were selected for biofilm experiments ([20], [30], [31]). With some modifications from previous methods, employing CV staining, K. pneumoniae cells were grown in M63 salt media at 37°C, 200 rpm shaking conditions overnight. […] Following incubation, the media and planktonic cells were gently removed, and the wells with adhered biofilm were washed three times with 0.9% saline. […] The biofilm inhibition was calculated as the percentage of biofilm remaining after treatment using the formula:
Biofilms remaining (%)=OD595 (sample)/OD595 (control)×100%

in vitro [5] = conditions: mouse, microsomes
Protocol: as §3, §4

mammalian cell lines = conditions: cited from earlier work
[6] = subcutaneous, 5 mg/kg b.w., plasma

Sequence of CYP3A4 (P08684 whole entry, canonical isoform): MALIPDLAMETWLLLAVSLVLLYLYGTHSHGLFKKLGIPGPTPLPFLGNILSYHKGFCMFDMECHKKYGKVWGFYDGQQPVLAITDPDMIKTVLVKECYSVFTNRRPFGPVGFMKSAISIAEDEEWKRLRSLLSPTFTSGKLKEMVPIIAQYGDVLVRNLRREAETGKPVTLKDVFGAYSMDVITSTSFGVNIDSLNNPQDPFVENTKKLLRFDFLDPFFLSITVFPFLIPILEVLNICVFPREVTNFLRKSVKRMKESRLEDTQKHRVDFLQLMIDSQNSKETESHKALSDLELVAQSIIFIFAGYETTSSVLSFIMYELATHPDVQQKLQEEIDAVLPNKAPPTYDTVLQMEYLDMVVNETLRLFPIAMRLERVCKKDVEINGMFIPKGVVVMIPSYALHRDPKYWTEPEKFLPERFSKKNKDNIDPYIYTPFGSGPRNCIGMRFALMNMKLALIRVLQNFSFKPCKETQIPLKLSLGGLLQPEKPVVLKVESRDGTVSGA
Sequence of CYP2D6 (P10635 whole entry): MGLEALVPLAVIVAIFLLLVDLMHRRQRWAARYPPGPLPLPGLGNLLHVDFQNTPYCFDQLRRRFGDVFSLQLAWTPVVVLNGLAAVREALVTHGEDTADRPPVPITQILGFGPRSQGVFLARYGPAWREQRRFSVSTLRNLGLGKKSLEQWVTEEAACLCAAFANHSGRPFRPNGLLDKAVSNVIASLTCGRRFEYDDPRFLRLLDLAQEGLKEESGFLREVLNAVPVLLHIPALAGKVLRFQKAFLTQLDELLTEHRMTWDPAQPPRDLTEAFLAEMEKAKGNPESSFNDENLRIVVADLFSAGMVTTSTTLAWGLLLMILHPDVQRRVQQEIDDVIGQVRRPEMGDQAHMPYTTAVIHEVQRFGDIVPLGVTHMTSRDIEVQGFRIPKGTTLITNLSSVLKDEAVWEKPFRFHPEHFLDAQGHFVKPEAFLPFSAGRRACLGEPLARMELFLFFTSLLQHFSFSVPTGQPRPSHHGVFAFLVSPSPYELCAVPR
Sequence of CYP2C19 (P33261 whole entry): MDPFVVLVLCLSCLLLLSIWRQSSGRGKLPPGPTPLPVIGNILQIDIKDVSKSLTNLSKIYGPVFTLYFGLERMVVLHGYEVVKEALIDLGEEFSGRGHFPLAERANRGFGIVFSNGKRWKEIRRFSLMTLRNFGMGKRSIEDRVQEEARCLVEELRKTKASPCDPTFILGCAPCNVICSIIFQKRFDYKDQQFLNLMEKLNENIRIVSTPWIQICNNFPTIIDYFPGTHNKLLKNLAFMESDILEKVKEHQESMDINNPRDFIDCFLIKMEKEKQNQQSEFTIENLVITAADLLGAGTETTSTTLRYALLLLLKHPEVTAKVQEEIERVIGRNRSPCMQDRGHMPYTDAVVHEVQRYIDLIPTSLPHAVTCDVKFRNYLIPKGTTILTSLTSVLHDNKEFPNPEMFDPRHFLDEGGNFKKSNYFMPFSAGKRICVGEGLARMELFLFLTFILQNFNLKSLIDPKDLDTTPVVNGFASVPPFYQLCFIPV
Sequence of CYP2C9 (P11712 whole entry): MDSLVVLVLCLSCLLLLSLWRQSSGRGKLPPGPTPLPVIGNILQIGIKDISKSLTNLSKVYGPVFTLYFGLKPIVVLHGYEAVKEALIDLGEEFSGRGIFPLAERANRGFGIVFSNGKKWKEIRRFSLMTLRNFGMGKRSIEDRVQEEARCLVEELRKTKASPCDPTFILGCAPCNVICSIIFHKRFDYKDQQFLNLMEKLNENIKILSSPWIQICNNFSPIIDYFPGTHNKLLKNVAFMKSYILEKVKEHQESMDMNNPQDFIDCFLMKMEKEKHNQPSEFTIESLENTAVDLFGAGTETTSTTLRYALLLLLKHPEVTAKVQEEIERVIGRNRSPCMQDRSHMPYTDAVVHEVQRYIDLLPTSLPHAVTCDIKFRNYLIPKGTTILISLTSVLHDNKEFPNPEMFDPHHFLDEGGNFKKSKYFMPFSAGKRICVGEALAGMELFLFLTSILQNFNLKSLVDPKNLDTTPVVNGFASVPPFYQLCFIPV

## CC[C@H](C)CCCCC(=O)NCC(=O)N[C@H](CCN)C(=O)NCC(=O)N[C@H](CO)C(=O)N[C@H](Cc1c[nH]c2ccccc12)C(=O)N[C@@H](CO)C(=O)N[C@@H](CCN)C(=O)N[C@H](CCN)C(=O)N[C@H](C(=O)N[C@@H](CCC(=O)O)C(=O)N[C@H](C(=O)N[C@@H](C(=O)N[C@@H](CO)C(=O)O)[C@@H](C)CC)[C@@H](C)CC)[C@@H](C)CC [Tridecaptin M, tridecaptin M] (X1-G[dDab]G[dS][dW]S[Dab][dDab]IEI[d(aIle)]S-OH)
In vitro [1]; pH 7.4
  half-life: > 2 h
  remaining at 0.25 h: 86.4%
  remaining at 0.5 h: 76.5%
  remaining at 1 h: 70.1%
  remaining at 2 h: 58.8%
In vitro [1]; pH 7.4, CL, rat liver microsomes
  microsomal CLint: < 11 µL/min/mg
CYP3A4
  IC50: > 30 µM
CYP3A4; human
  inhibition at 25 min, 0.01 µM: < 0%
  inhibition at 25 min, 0.03 µM: < 0%
  inhibition at 25 min, 0.1 µM: < 0%
  inhibition at 25 min, 0.3 µM: < 0%
  inhibition at 25 min, 1 µM: 3.77%
  inhibition at 25 min, 3 µM: 9%
  inhibition at 25 min, 10 µM: 28%
  inhibition at 25 min, 30 µM: 26.6%
CYP2C19
  IC50: > 30 µM
CYP2C19; human
  inhibition at 25 min, 0.01 µM: < 0%
  inhibition at 25 min, 0.03 µM: < 0%
  inhibition at 25 min, 0.1 µM: < 0%
  inhibition at 25 min, 0.3 µM: < 0%
  inhibition at 25 min, 1 µM: < 0%
  inhibition at 25 min, 3 µM: 0.13%
  inhibition at 25 min, 10 µM: 5.67%
  inhibition at 25 min, 30 µM: 11.7%
CYP2D6
  IC50: > 30 µM
CYP2D6; human
  inhibition at 25 min, 0.01 µM: < 0%
  inhibition at 25 min, 0.03 µM: < 0%
  inhibition at 25 min, 0.1 µM: < 0%
  inhibition at 25 min, 0.3 µM: < 0%
  inhibition at 25 min, 1 µM: < 0%
  inhibition at 25 min, 3 µM: 1.28%
  inhibition at 25 min, 10 µM: 10.9%
  inhibition at 25 min, 30 µM: 13.1%
CYP2C9
  IC50: > 30 µM
CYP2C9; human
  inhibition at 25 min, 0.01 µM: < 0%
  inhibition at 25 min, 0.03 µM: 0.93%
  inhibition at 25 min, 0.1 µM: < 0%
  inhibition at 25 min, 0.3 µM: < 0%
  inhibition at 25 min, 1 µM: 0.05%
  inhibition at 25 min, 3 µM: < 0%
  inhibition at 25 min, 10 µM: 0.82%
  inhibition at 25 min, 30 µM: 25.6%
[2]
  CL: <11.55 µL/min/mg
In vitro [3]
  fraction unbound at 4 h, 10 µM: 0.465
E. coli
  MIC: 4 µg/mL (≈ 2.69 µM)
  MIC50: 4 µg/mL (≈ 2.69 µM)
  MIC range: 1 to 8 µg/mL
  MIC values: 2 to 8 µg/mL
[4]; 1
  % Biofilm remaining (biofilm inhibition): 29.6%
[4]; 2
  % Biofilm remaining (biofilm inhibition): 7.0%
[4]; 5
  % Biofilm remaining (biofilm inhibition): 0.5%
intravenous, 5mg/kg b.w.
  Cmax relative to the MIC value: about 10 times
  time plasma concentration maintained above MIC (4µg/mL): about 4 h
intravenous, 5 mg/kg b.w., plasma, 5 mg/kg
  Cmax: 43200 ± 6020 ng/mL
[6]
  CL: 4.95 ± 0.24 mL/min/kg
  Vss: 2.63 ± 0.45 L/kg
subcutaneous, 5 mg/kg b.w., plasma, 5 mg/kg
  T1/2: 8.56 ± 1.60 h
In vitro [5]; pH 7.4
  half-life: > 2 h
  remaining at 0.25 h: 82.4%
  remaining at 0.5 h: 83.8%
  remaining at 1 h: 88.1%
  remaining at 2 h: 74.7%
In vitro [5]; pH 7.4, CL, mouse liver microsomes
  microsomal CLint: < 11 µL/min/mg
Mammalian cell lines
  cytotoxicity: non-cytotoxic
